Experimental data from patent US20080280941A1, “8-Phenoxy-Gamma Carboline Derivatives” (priority 2004, published 2008).

Assays:
[1] = target: 5HT1B/5HT1D receptors of isolated membranes of bovine nuclear caudal; assay: Binding on 5HT1B/5HT1D receptors, shifting of [3H]5-carboxamidotryptamine; conditions: 100 nmol/l 8-OH-DPAT and 100 nM mesulergine
Experimental: (§1) 24 hours after a treatment with guanethidine (20 mg/kg, sc), the male Wistar rats (220-250 g) are anaesthetized with sodic pentobarbital (60 mg/kg, ip). The two back legs are shaved. After a cut in the upper part of the thigh, the saphenous nerve is cleared, cut, placed on a platinum electrode and immersed in a drop of paraffin oil. Only the electrode placed on the right leg is connected to a stimulator. This latter represents the “stimulated” leg by contrast to the “sham” left leg. The product (at a dosage of 5 μg/kg) or the corresponding solvent (NaCl 9 ‰-DMSO) are administrated via the jugular vein, 15 minutes before the electrical stimulation (ES). A plasmatic marker, Evans Blue (20 mg/kg iv) is administered through the penis vein 5 minutes before the ES. The saphenous nerve is stimulated according to the following conditions: 3V; 5 Hz; 1 ms; 5 minutes (Harvard stimulator). […] The Evans Blue is measured in the plasma and after extraction of the skin biopsies by a spectrophotometrical method, at 620 nm. […] The vascular contractile response has been measured with saphenous vein rings of rabbits (new Zealand, 2.5 to 3 kg) bound to a sensor, installed in organs baths (EMKA Technologies), containing a physiological Krebs-Henseileit solution. […] The vasoconstrictive effect of the molecules with increasing concentrations is evaluated with saphenous vein rings contracted in an intermediate manner with 40 mmol/l KCl and treated with 0.5 μmol/l pargyline, an inhibitor of monoamine oxydase. The results are expressed as percent of the maximum effect induced by serotonine at 1 μmol/l. […] The binding on the 5HT1B/5HT1D receptors of isolated membranes of bovine nuclear caudal has been measured by measuring the shifting of 5 nmoml/l of [^3H]5-carboxamidotryptamine by increasing concentrations of the molecule in the presence of 100 nmol/l of 8-OH-dipropylaminotetralin (8-OH-DPAT) in order to mask the 5HT1A receptors and in the presence of 100 nM of mesulergine in order to mask the 5HT2 receptors.

[2] = test system: inflammation induced by the stimulation of the saphenous nerve; assay: Inhibition of neurogenic inflammation (plasmatic extravasation) induced by electrical stimulation of the saphenous nerve; type: in vivo, male Wistar rats; conditions: rat, 15 minutes before electrical stimulation of the saphenous nerve, Evans Blue extravasation
Experimental: The results of the pharmacological studies are given below. • 1. The inhibitory power of the molecules on inflammation induced by the stimulation of the saphenous nerve has been measured at follows 24 hours after a treatment with guanethidine (20 mg/kg, sc), the male Wistar rats (220-250 g) are anaesthetized with sodic pentobarbital (60 mg/kg, ip). The two back legs are shaved. After a cut in the upper part of the thigh, the saphenous nerve is cleared, cut, placed on a platinum electrode and immersed in a drop of paraffin oil. Only the electrode placed on the right leg is connected to a stimulator. This latter represents the “stimulated” leg by contrast to the “sham” left leg. The product (at a dosage of 5 μg/kg) or the corresponding solvent (NaCl 9 ‰-DMSO) are administrated via the jugular vein, 15 minutes before the electrical stimulation (ES). A plasmatic marker, Evans Blue (20 mg/kg iv) is administered through the penis vein 5 minutes before the ES. The saphenous nerve is stimulated according to the following conditions: 3V; 5 Hz; 1 ms; 5 minutes (Harvard stimulator). At the end of the ES, a blood sample is realized by cardiac puncture and the skin of the edema of each leg (visualized by the extravasation of the Evans Blue) is sampled and weighted later. The animals are killed by anaesthetical overdose. The blood samples are centrifuged (3,000 rotations/minute, during 15 minutes). […] The Evans Blue is measured in the plasma and after extraction of the skin biopsies by a spectrophotometrical method, at 620 nm. […] The vascular contractile response has been measured with saphenous vein rings of rabbits (new Zealand, 2.5 to 3 kg) bound to a sensor, installed in organs baths (EMKA Technologies), containing a physiological Krebs-[…] solution. […] The vasoconstrictive effect of the molecules with increasing concentrations is evaluated with saphenous vein rings contracted in an intermediate manner with 40 mmol/l KCl and treated with 0.5 μmol/l pargyline, an inhibitor of monoamine oxydase. The results are expressed as percent of the maximum effect induced by serotonine at 1 μmol/l. […]

[3] = test system: saphenous vein rings of rabbits; assay: Vascular contractile response of isolated saphenous vein rings; set-up: species or system rabbits (new Zealand); conditions: rabbit saphenous vein rings, percent of the maximum effect induced by serotonine at 1 μmol/l
Experimental: as §1

[4] = target: T1, 5HT1A receptors of isolated membranes of rat brain (Rattus norvegicus, UniProt P19327); assay: Binding to 5HT1A receptors, shifting of [3H]8-OH-DPAT; conditions: 100 nmol/l mesulergine
T1 construct: isolated membranes of rat brain; from tissue; host or cells: rat brain membranes
T1 sequence (P19327 1-422): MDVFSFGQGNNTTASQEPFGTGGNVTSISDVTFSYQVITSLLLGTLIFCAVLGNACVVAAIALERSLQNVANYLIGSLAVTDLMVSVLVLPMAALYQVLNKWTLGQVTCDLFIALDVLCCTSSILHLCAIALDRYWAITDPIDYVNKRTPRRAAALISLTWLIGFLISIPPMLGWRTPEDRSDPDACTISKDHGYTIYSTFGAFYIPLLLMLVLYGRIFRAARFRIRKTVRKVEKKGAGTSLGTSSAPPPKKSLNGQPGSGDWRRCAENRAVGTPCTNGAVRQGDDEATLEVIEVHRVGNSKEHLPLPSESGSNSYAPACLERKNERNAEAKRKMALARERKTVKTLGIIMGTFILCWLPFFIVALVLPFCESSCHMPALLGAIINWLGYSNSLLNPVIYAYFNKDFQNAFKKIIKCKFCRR

| Compound | IC50 [1] | Neuro. Inf. Inhib. (%) 5 μg/kg iv [2] | Contraction. Saph. Vein 10^−6 mol/l (%) [3] | IC50 [4] | melting point |
| --- | --- | --- | --- | --- | --- |
| Cl.c1ccc(CN2CCc3[nH]c4ccc(Oc5ccccc5)cc4c3C2)cc1 [Example 3, 8-Phenoxy-N-benzyl-2,3,4,5-tetrahydro-5H-pyridinium[4,3-b]indole-hydrochloride] | > 5 µM | 80% | 0% | > 5 µM |  |
| c1ccc(Oc2ccc3[nH]c4c(c3c2)CNCC4)cc1 [Example 1, 8-Phenoxy-2,3,4,5-tetrahydro-1H-pyrido[4,3-b]indole] | 10 µM | 65% | 0% | 30 µM |  |
| c1ccc(CN2CCc3[nH]c4ccc(Oc5ccccc5)cc4c3C2)cc1 [Example 2, 8-Phenoxy-N-benzyl-2,3,4,5-tetrahydro-1H-pyrido[4,3-b]indole] | > 10 µM | 60% | 0% | > 10 µM | 102.3 °C |
